In article PMC12408343, “Deep learning reveals antibiotics in the archaeal proteome” (Nature Microbiology, 2025):
≈ marks a conversion by molar mass, not a printed value. Peptide text beside a SMILES is read from it.

Legend:
[1] = test system: E. coli AIC222 (colistin-resistant, CRE); experiment: microbe, parasite or virus in culture; parameters: MIC, E. coli AIC222 - CRE (-): unit not given beside the values; conditions: Fig 2a source data; Gram-negative, CRE; broth microdilution
Method: (§1) Briefly, 10^5 bacterial cells were incubated with serially diluted EPs (0–64 μmol l^−1) at 37 °C. Bacterial growth was assessed by measuring the optical density at 600 nm in a microplate reader at 1 day post-treatment. […] Secondary structure fractions were calculated using the BeStSel server. fH and fβ stand for helical and β fractions, respectively.

[2] = test system: A. baumannii ATCC 19606; experiment: microbe, parasite or virus in culture
Method: as §1

[3] = test system: E. faecium ATCC 700221 (VRE); experiment: microbe, parasite or virus in culture; conditions: for MIC E. faecium ATCC 700221 – VRE (+): ATCC 700221, 24 h; for MIC, E. faecium ATCC 700221 - VRE (+): Fig 2a source data, Gram-positive, broth microdilution
Method: as §1

[4] = test system: A. baumannii; experiment: Cytoplasmic membrane fluidity, Laurdan generalized polarization; format: cell-based, Acinetobacter baumannii; conditions: peptides at 100× MIC stock diluted 1:100, 30 min, λex 350, λem 440/490 nm; mean of 3 independent experiments
Excerpt: Fig. 4 Mechanism of action, haemolytic activity and cytotoxicity of antibiotics from the archaeome. […] The fluorescence probe NPN was used to assess membrane permeabilization (a) induced by the tested EPs (Extended Data Fig. 6a). The fluorescence probe DiSC3-5 was used to evaluate membrane depolarization (b) caused by archaeasins (Extended Data Fig. 6b). The shown values represent the relative fluorescence of both probes, with nonlinear fitting compared with the baseline of the untreated control (buffer + bacteria + fluorescence dye) and benchmarked against the antibiotics polymyxin B and levofloxacin. c, Laurdan generalized polarization over time in A. baumannii treated with archaeasins. […] Higher generalized polarization values indicate increased membrane rigidity, whereas lower values reflect increased membrane fluidity. Benzyl alcohol was used as a positive control for membrane fluidization, and untreated cells served as a negative control. […] All experiments were performed in three independent replicates (Extended Data Fig. 7). The protein and peptide structures depicted in panels a and b were created with PyMOL Molecular Graphics System, v.3.0 (Schrödinger).

[5] = test system: E. coli ATCC 11775; experiment: microbe, parasite or virus in culture; parameters: MIC, E. coli ATCC 11775 (-): unit not given beside the values
Method: as §1

[6] = test system: E. coli AIC221; experiment: microbe, parasite or virus in culture; parameters: MIC, E. coli AIC221 (-): unit not given beside the values; conditions: for MIC E. coli AIC221 (−): AIC221, 24 h; for MIC, E. coli AIC221 (-): Fig 2a source data, Gram-negative, broth microdilution
Method: as §1

[7] = test system: human red blood cells (RBCs); conditions: red cells of human, 4 h
Method: To assess the potential toxicity of the synthesized archaeasins, we exposed them to human red blood cells (RBCs), a common method for evaluating the toxicity of antimicrobial agents[20],[26],[27].
To evaluate the release of haemoglobin from human erythrocytes upon treatment of each of the EPs, human RBCs were obtained from Zen-Bio (donor, blood type A^−) obtained from heparin anti-coagulated blood. RBCs were washed with PBS (pH 7.4) 4× by centrifugation at 800g for 10 min. Aliquots of 200-fold-diluted cells (75 μl) were mixed with peptide solution (0.78–100 μmol l^−1; 75 μl), and the mixture was incubated for 4 h at room temperature. After incubation, the plate was centrifuged at 1,300g for 10 min to precipitate cells and debris, and 100 μl of supernatant from each well was transferred to a new 96-well plate for absorbance reading (405 nm) using an automatic plate reader. The percentage of haemolysis was defined by comparison with negative control (samples containing PBS) and positive control (samples containing 1% (v/v) SDS in PBS solution). Haemolysis(%)=100×(absorbance405nmpeptide−absorbance405nmnegativecontrol)/(absorbance405nmpositivecontrol−absorbance405nmnegativecontrol)
All assays were performed in three independent biological replicates as indicated in each figure legend and in the Methods. […] In the skin abscess and thigh infection mouse models, we used six mice per group following established protocols approved by the University Laboratory of Animal Resources of the University of Pennsylvania.
Extended Data Fig. 7 Hemolytic activity of archaeasins. Hemolytic activity was assessed by exposing red blood cells to archaeasins, with lysis determined by absorbance readings after 4 h. The peptides were added to plates and subjected to a two-fold dilution series (ranging from 64 to 4 μmol L^−1) before exposure to the red blood cells. Source data

[8] = test system: K. pneumoniae ATCC 13883; experiment: microbe, parasite or virus in culture
Method: as §1

[9] = Fig 2a source data, Gram-negative, broth microdilution

CC[C@H](C)[C@H](N)C(=O)N[C@@H](CC(C)C)C(=O)NCC(=O)NCC(=O)N[C@@H](CCCCN)C(=O)N[C@@H](CC(C)C)C(=O)N[C@H](C(=O)N[C@@H](CCCCN)C(=O)N[C@@H](CCCCN)C(=O)N[C@@H](CO)C(=O)N[C@@H](CC(C)C)C(=O)N[C@@H](CCCCN)C(=O)N[C@@H](CC(C)C)C(=O)O)[C@@H](C)CC [Archaeasin-21] (H-ILGGKLIKKSLKL-OH; N-terminus and C-terminus assumed)
MIC, E. coli AIC222 - CRE (-) [1]: 64 | MIC, A. baumannii ATCC 19606 (-) [2]: 64 | MIC E. faecium ATCC 700221 – VRE (+) [3]: 64 µM (≈ 90.3 µg/mL) | MIC, E. faecium ATCC 700221 - VRE (+) [3]: 64 | Laurdan generalized polarization change of cytoplasmic membrane [4]: only modest or even decreasing generalized polarization shifts

CC[C@H](C)[C@H](N)C(=O)NCC(=O)N[C@@H](Cc1c[nH]c2ccccc12)C(=O)N[C@H](C(=O)N[C@@H](CO)C(=O)N[C@@H](CC(N)=O)C(=O)N[C@@H](CCCNC(=N)N)C(=O)N[C@H](C(=O)N[C@H](C(=O)N[C@@H](CC(C)C)C(=O)N[C@@H](CCCCN)C(=O)N[C@@H](CC(C)C)C(=O)N[C@@H](CC(C)C)C(=O)N[C@@H](CCCNC(=N)N)C(=O)N[C@@H](Cc1ccccc1)C(=O)N[C@@H](C)C(=O)N[C@@H](CCCCN)C(=O)N[C@@H](CC(N)=O)C(=O)N[C@@H](CCSC)C(=O)N[C@@H](CCCCN)C(=O)O)[C@@H](C)CC)C(C)C)[C@@H](C)CC [Archaeasin-22] (H-IGWISNRVILKLLRFAKNMK-OH; N-terminus and C-terminus assumed)
MIC E. coli ATCC 11775 (−) ([5]; ATCC 11775, 24 h): 16 µM (≈ 38.4 µg/mL) | MIC, E. coli ATCC 11775 (-) [5, 9]: 16 | MIC E. coli AIC221 (−) [6]: 2 µM (≈ 4.8 µg/mL) | MIC, E. coli AIC221 (-) [6]: 2 | HC50 (source data of Fig. 4) [7]: 7.224 µmol/L | HC50, peptide concentration leading to 50% RBC lysis [7]: 7 µmol/L | MIC, E. coli AIC222 - CRE (-) [1]: 4 | MIC, A. baumannii ATCC 19606 (-) [2]: 1 | MIC K. pneumoniae ATCC 13883 (−) ([8]; ATCC 13883, 24 h): 16 µM (≈ 38.4 µg/mL) | MIC, K. pneumoniae ATCC 13883 (-) [8, 9]: 16 | Laurdan generalized polarization change of cytoplasmic membrane [4]: only modest or even decreasing generalized polarization shifts

CC[C@H](C)[C@H](NC(=O)[C@H](Cc1c[nH]c2ccccc12)NC(=O)[C@H](CCCCN)NC(=O)[C@H](CC(C)C)NC(=O)[C@H](CCCNC(=N)N)NC(=O)[C@H](C)NC(=O)[C@H](CCCNC(=N)N)NC(=O)[C@H](C)NC(=O)[C@H](CC(C)C)NC(=O)[C@H](Cc1c[nH]c2ccccc12)NC(=O)[C@@H](N)CC(C)C)C(=O)N[C@H](C(=O)O)[C@@H](C)O [Archaeasin-57] (H-LWLARARLKWIT-OH; N-terminus and C-terminus assumed)
MIC E. coli AIC221 (−) [6]: 64 µM (≈ 97.7 µg/mL) | MIC, E. coli AIC221 (-) [6]: 64 | HC50 (source data of Fig. 4) [7]: 203.9 µmol/L | MIC, E. coli AIC222 - CRE (-) [1]: 64 | MIC, A. baumannii ATCC 19606 (-) [2]: 16 | MIC E. faecium ATCC 700221 – VRE (+) [3]: 8 µM (≈ 12.2 µg/mL) | MIC, E. faecium ATCC 700221 - VRE (+) [3]: 8 | Laurdan generalized polarization change of cytoplasmic membrane [4]: pronounced increases in generalized polarization values over time
